Assay results taken from PMC6704710, “Preclinical evaluation of 3D185, a novel potent inhibitor of FGFR1/2/3 and CSF-1R, in FGFR-dependent and macrophage-dominant cancer models” (Journal of Experimental & Clinical Cancer Research : CR, 2019).

Assays:
Experiment in all cases: Eurofins kinase panel
Type in all cases: biochemical
Conditions in all cases: read-out: Inhibition rate (%)
ATR/ATRIP(h) = molecular target: T1, ATR/ATRIP(h) (Homo sapiens, UniProt Q13535)
T1 construct: purchased Eurofins (KinaseProfiler)

CDKL3(h) = molecular target: T2, CDKL3(h) (Homo sapiens, UniProt Q8IVW4)
T2 construct: purchased Eurofins (KinaseProfiler)
T2 sequence (Q8IVW4 whole entry): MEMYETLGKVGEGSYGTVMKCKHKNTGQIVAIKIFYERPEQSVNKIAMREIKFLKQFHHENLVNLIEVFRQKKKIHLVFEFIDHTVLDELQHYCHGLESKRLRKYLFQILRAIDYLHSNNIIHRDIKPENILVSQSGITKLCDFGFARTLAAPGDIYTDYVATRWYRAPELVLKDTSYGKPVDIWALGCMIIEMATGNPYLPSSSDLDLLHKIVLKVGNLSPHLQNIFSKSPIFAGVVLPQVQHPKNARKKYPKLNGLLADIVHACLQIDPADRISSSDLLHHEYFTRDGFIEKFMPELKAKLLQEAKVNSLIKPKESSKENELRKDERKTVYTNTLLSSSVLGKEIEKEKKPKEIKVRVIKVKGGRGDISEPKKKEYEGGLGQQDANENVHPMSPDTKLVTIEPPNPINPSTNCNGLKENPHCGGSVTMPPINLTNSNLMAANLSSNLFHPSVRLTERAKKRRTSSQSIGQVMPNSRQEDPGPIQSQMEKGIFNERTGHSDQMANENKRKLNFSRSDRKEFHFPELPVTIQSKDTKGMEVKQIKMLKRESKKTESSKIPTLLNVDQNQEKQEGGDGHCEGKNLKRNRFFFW

Met(Y1248C)(h) = molecular target: T3, Met(Y1248C)(h) (Homo sapiens, UniProt P08581, Y1230C)
T3 construct: purchased Eurofins (KinaseProfiler)
T3 sequence (P08581 956-1390 Y1230C limits assumed): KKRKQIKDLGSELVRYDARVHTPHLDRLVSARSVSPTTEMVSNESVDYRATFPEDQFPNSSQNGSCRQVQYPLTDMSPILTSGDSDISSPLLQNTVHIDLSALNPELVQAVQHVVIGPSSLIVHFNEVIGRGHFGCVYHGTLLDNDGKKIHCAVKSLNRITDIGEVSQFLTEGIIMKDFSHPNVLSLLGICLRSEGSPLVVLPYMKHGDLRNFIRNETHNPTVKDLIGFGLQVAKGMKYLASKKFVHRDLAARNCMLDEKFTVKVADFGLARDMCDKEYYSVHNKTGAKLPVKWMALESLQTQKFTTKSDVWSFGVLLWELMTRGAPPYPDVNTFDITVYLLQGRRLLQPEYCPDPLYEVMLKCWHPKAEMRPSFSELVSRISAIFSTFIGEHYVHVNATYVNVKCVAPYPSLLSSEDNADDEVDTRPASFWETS

EphB1(h) = molecular target: T4, EphB1(h) (Homo sapiens, UniProt P54762)
T4 construct: purchased Eurofins (KinaseProfiler)
T4 sequence (P54762 18-984): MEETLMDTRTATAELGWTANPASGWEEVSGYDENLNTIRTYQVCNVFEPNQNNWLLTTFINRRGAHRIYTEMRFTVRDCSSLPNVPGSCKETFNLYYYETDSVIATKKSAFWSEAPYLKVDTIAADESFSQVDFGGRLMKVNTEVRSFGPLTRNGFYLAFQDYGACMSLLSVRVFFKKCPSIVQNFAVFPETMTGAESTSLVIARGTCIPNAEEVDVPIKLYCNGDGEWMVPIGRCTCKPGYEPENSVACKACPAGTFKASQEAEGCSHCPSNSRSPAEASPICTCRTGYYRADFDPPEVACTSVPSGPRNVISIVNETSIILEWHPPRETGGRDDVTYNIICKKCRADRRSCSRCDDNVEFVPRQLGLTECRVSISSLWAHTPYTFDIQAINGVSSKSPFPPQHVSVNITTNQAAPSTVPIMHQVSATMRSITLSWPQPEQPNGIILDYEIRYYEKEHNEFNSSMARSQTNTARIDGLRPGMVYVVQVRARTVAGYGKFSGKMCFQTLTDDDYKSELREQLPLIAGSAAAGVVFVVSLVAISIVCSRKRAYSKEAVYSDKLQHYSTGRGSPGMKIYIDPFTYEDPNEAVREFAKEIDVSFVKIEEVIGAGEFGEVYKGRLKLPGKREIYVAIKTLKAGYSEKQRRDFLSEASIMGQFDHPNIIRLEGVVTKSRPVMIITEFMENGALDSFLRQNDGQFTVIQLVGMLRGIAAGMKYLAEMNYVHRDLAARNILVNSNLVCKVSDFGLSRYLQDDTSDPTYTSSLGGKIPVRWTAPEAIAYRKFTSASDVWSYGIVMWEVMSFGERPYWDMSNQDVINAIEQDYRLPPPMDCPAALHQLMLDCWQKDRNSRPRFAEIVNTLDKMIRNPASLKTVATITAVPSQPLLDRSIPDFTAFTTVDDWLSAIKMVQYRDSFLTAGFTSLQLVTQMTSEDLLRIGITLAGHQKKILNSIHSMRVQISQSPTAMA

DAPK2(h) = molecular target: T5, DAPK2(h) (Homo sapiens, UniProt Q9UIK4)
T5 construct: purchased Eurofins (KinaseProfiler)
T5 sequence (Q9UIK4 whole entry): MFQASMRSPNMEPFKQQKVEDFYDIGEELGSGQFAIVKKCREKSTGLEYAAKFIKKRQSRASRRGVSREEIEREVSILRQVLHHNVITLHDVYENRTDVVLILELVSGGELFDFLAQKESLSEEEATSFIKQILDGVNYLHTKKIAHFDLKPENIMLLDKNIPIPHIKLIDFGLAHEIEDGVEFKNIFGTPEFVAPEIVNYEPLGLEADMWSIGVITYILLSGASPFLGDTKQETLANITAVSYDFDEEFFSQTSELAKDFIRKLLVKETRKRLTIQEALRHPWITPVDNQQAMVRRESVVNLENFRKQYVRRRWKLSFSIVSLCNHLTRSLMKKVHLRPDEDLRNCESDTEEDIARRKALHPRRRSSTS

Ret(V804M)(h) = molecular target: T6, Ret(V804M)(h) (Homo sapiens, UniProt P07949, V804M)
T6 construct: purchased Eurofins (KinaseProfiler)
T6 sequence (P07949 29-1114 V804M): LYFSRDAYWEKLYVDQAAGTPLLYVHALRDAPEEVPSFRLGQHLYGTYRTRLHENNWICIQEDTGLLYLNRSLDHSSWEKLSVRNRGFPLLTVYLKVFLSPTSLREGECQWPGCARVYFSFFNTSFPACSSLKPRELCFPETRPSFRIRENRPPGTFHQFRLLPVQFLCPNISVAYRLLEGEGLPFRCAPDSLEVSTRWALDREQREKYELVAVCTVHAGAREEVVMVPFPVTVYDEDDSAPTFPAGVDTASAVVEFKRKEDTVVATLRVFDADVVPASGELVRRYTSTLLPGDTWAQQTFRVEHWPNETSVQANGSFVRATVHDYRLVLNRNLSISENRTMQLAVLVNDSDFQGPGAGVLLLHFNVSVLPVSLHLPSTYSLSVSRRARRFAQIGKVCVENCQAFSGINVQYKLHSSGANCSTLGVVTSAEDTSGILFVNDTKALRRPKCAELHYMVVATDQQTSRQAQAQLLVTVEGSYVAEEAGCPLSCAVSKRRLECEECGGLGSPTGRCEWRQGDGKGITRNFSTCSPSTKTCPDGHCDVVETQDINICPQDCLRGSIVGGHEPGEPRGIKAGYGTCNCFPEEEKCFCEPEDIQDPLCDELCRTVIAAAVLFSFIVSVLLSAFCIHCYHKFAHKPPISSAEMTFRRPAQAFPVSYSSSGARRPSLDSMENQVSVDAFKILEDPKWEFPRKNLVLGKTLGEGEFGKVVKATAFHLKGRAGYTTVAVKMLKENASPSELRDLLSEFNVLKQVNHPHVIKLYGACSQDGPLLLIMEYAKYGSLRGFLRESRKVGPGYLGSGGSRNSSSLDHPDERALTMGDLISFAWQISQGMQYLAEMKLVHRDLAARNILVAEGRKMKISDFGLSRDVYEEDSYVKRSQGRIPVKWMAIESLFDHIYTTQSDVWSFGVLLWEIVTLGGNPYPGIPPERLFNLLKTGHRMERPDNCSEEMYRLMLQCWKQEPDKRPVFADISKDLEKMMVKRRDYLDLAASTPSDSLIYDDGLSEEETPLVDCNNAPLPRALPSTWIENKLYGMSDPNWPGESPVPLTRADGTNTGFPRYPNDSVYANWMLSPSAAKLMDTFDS

MAPK2(h) = molecular target: T7, MAPK2(h) (Homo sapiens, UniProt P28482)
T7 construct: purchased Eurofins (KinaseProfiler)
T7 sequence (P28482 whole entry): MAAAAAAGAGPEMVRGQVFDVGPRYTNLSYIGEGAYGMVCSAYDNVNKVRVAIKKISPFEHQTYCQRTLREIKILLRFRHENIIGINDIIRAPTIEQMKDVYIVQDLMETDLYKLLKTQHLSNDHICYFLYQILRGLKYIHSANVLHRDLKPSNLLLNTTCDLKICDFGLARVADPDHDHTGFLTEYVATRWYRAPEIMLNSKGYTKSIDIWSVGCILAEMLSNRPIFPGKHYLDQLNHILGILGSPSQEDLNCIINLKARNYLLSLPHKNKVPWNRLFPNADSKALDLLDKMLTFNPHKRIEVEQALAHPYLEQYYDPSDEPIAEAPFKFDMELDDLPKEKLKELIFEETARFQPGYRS

LKB1(h) = molecular target: T8, LKB1(h) (Homo sapiens, UniProt Q15831)
T8 construct: purchased Eurofins (KinaseProfiler)
T8 sequence (Q15831 1-433): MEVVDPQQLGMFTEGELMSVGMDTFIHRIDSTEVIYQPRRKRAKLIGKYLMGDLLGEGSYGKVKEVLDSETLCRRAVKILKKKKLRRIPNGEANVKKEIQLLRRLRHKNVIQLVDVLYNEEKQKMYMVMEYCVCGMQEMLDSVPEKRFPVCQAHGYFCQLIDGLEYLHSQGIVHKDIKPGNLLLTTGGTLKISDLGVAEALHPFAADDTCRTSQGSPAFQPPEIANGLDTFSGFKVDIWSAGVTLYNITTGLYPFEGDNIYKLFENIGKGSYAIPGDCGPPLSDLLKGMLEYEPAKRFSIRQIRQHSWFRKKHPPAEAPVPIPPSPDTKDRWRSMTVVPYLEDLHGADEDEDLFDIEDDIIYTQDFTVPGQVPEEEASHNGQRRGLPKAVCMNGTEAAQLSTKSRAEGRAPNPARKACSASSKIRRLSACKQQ
T8 sequence (Q7RTN6 1-431 partner): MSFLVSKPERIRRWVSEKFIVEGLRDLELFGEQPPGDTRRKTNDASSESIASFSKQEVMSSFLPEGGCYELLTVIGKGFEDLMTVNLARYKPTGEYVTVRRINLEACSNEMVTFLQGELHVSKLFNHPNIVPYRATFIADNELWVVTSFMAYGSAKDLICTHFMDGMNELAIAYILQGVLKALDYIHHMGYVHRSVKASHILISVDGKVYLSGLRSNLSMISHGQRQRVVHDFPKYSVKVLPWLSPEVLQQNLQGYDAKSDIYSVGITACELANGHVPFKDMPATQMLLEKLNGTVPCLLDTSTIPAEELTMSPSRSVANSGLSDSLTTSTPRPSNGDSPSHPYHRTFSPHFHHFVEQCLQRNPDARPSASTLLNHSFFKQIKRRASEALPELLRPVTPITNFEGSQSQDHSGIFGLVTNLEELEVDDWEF
T8 sequence (Q9Y376 1-341 partner): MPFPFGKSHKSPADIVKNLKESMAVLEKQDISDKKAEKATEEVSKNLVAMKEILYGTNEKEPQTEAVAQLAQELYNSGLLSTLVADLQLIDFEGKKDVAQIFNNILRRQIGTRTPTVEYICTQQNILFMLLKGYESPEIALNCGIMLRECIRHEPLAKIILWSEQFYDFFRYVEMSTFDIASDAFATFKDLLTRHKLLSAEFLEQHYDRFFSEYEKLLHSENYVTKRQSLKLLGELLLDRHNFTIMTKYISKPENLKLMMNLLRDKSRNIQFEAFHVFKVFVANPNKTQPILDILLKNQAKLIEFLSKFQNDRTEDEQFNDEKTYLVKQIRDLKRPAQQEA

## COc1cc(OC)c(Cl)c(-c2ccc3c(NC(=O)c4ccc(N5CCNC(C)(C)C5)cc4)n[nH]c3n2)c1Cl [3D185]
ATR/ATRIP(h); 10 nM
  inhibition at 0.01 µM: -4%
ATR/ATRIP(h); 100 nM
  inhibition at 0.1 µM: 10%
ATR/ATRIP(h); 1000 nM
  inhibition at 1 µM: 6%
CDKL3(h); 10 nM
  inhibition at 0.01 µM: -12%
CDKL3(h); 100 nM
  inhibition at 0.1 µM: -17%
CDKL3(h); 1000 nM
  inhibition at 1 µM: -9%
Met(Y1248C)(h); 10 nM
  inhibition at 0.01 µM: -9%
Met(Y1248C)(h); 100 nM
  inhibition at 0.1 µM: -2%
Met(Y1248C)(h); 1000 nM
  inhibition at 1 µM: 5%
EphB1(h); 10 nM
  inhibition at 0.01 µM: -9%
EphB1(h); 100 nM
  inhibition at 0.1 µM: 1%
EphB1(h); 1000 nM
  inhibition at 1 µM: 36%
DAPK2(h); 10 nM
  inhibition at 0.01 µM: 1%
DAPK2(h); 100 nM
  inhibition at 0.1 µM: -8%
DAPK2(h); 1000 nM
  inhibition at 1 µM: 2%
Ret(V804M)(h); 10 nM
  inhibition at 0.01 µM: -3%
Ret(V804M)(h); 100 nM
  inhibition at 0.1 µM: -2%
Ret(V804M)(h); 1000 nM
  inhibition at 1 µM: 56%
MAPK2(h); 10 nM
  inhibition at 0.01 µM: -5%
MAPK2(h); 100 nM
  inhibition at 0.1 µM: -3%
MAPK2(h); 1000 nM
  inhibition at 1 µM: 3%
LKB1(h); 10 nM
  inhibition at 0.01 µM: -9%
LKB1(h); 100 nM
  inhibition at 0.1 µM: 7%
LKB1(h); 1000 nM
  inhibition at 1 µM: 2%
